{"source": "patent US8475850B2", "about": "“Methods and compositions for heavy metal detoxification” (priority 2007, dated 2013)", "key": {"NQO1": {"tested_on": "NQO1", "test": "NADPH quinone oxido reductase (NQO1) activity assay in RL-34 cell lysate after treatment", "format": "cell-based, rat", "conditions": "RL-34 cell line"}, "HMOX1": {"tested_on": "HMOX1", "conditions": "for HMOX1 gene expression increased over DMSO control: text summary of Table 7"}, "GSTA1 and NQO1": {"tested_on": "GSTA1 and NQO1", "conditions": "for phase II gene expression increased over DMSO control: text summary of Table 7"}, "[1]": {"tested_on": "heme oxygenase (HO-1) promoter", "test": "heme oxygenase (HO-1) luciferase reporter in the HepG2 cell line", "conditions": "thirty percent induction over DMSO control is considered as active"}, "GST": {"tested_on": "GST", "test": "GST activity assay in RL-34 cell lysate after treatment", "format": "cell-based, rat", "conditions": "RL-34 cell line"}, "[2]": {"tested_on": "metallothionein (hMT1&2 and hMT1&2alt)", "conditions": "for MT gene expression increased over DMSO control: text summary of Table 7"}, "Nrf-2": {"tested_on": "Nrf-2", "test": "Western blot of Nrf-2 in the nuclear fraction of HepG2 cells", "format": "cell-based, human", "conditions": "4 hours, FIGS. 3 and 4", "experimental": "The HepG2 cell line was cultured as above and test compounds were added for four hours, after which the cells were lysed and the nuclear fraction was isolated (Dignam, J. D., R. M. Lebovitz, and R. G. Roeder, Nucleic Acids Res, 11(5): 1475-89, 1983). Total protein concentration was determined using the Bicinchoninic Acid Kit (Sigma). […] (60 μg total protein) were electrophoresed and detection of Nrf-2 was performed using primary antibody incubation overnight at 4° C. (Santa Cruz Biotechnology, Inc, Santa Cruz, Calif.). Secondary antibody linked to horseradish peroxidase was incubated for one h (GE Healthcare, Piscataway, N.J.), after which proteins were visualized using the enhanced chemiluminescence (ECL) system. Densitometry was performed using Kodak Molecular Imaging Software v.4.0 (Eastman Kodak Company, Rochester, N.Y.) measuring the net intensity of the band."}}, "note": "Like-named read-outs stand apart in the source and are kept apart here."}
{"smiles": "O=c1c(-c2ccc(O)cc2)coc2cc(O)cc(O)c12", "note": "[Bonistein]", "values": [{"measurement": "NQO1 enzymatic activity induced over DMSO control", "setting": "NQO1; 20 μg/ml", "result": "≥ 20", "unit": "%"}]}
{"smiles": "Oc1ccc(C=Cc2cc(O)cc(O)c2)cc1", "note": "[Resveratrol]", "values": [{"measurement": "NQO1 enzymatic activity induced over DMSO control", "setting": "NQO1; 20 μg/ml", "result": "≥ 20", "unit": "%"}]}
{"smiles": "COc1ccc2cc3[n+](cc2c1OC)CCc1cc2c(cc1-3)OCO2", "note": "[Berberine]", "values": [{"measurement": "NQO1 enzymatic activity induced over DMSO control", "setting": "NQO1; 20 μg/ml", "result": "≥ 20", "unit": "%"}]}
{"smiles": "COc1cc(C=CC(=O)CC(=O)C=Cc2ccc(O)c(OC)c2)ccc1O", "note": "[Curcumin, 1,7-Bis(4-hydroxy-3-methoxyphenyl)hepta-1,6-diene-3,5-dione]", "values": [{"measurement": "NQO1 enzymatic activity induced over DMSO control", "setting": "NQO1; 5 μg/ml", "result": "≥ 20", "unit": "%"}, {"measurement": "HMOX1 gene expression increased over DMSO control", "setting": "HMOX1; HepG2 cells", "result": "≥ 20", "unit": "%"}, {"measurement": "phase II gene expression increased over DMSO control", "setting": "GSTA1 and NQO1; HepG2 cells", "result": "≥ 20", "unit": "%"}, {"measurement": "expression of heme oxygenase promoter activity (in words)", "setting": "[1]", "result": "induced"}]}
{"smiles": "COc1cc(O)c(CC=C(C)C)c(O)c1C(=O)/C=C/c1ccc(O)cc1", "note": "[Xanthohumol]", "values": [{"measurement": "GST activity induced over DMSO control", "setting": "GST; 1 μg/ml", "result": "≥ 20", "unit": "%"}, {"measurement": "NQO1 enzymatic activity induced over DMSO control", "setting": "NQO1; 1 μg/ml", "result": "≥ 20", "unit": "%"}, {"measurement": "MT gene expression increased over DMSO control", "setting": "[2]; HepG2 cells", "result": "≥ 20", "unit": "%"}, {"measurement": "HMOX1 gene expression increased over DMSO control", "setting": "HMOX1; HepG2 cells", "result": "≥ 20", "unit": "%"}, {"measurement": "expression of heme oxygenase promoter activity (in words)", "setting": "[1]", "result": "induced"}]}
{"smiles": "C=C1C(=O)O[C@H]2[C@H]1CC/C(C)=C/CC[C@@]1(C)O[C@@H]21", "note": "[Parthenolide]", "values": [{"measurement": "NQO1 enzymatic activity induced over DMSO control", "setting": "NQO1; 20 μg/ml", "result": "≥ 20", "unit": "%"}]}
{"smiles": "O=c1oc2c(O)c3oc(=O)c4c5c(oc(=O)c6cc(O)c(O)c(O)c65)c(O)c5oc(=O)c(c2c2c(O)c(O)c(O)cc12)c3c54", "note": "[Terminalin]", "values": [{"measurement": "expression of heme oxygenase promoter activity (in words)", "setting": "[1]", "result": "induced"}]}
{"smiles": "CC1(C)CC[C@]2(C(=O)O)CC[C@]3(C)C(=CC[C@@H]4[C@@]5(C)CC[C@H](O)C(C)(C)[C@@H]5CC[C@]43C)[C@@H]2C1", "note": "[Oleanolic acid]", "values": [{"measurement": "NQO1 enzymatic activity induced over DMSO control", "setting": "NQO1; 25 μg/ml", "result": "≥ 20", "unit": "%"}, {"measurement": "MT gene expression increased over DMSO control", "setting": "[2]; HepG2 cells", "result": "≥ 20", "unit": "%"}, {"measurement": "expression of heme oxygenase promoter activity (in words)", "setting": "[1]", "result": "induced"}]}
{"smiles": "C[S+]([O-])CCCCN=C=S", "note": "(stereo not shown) [Sulforaphane]", "values": [{"measurement": "GST activity induced over DMSO control", "setting": "GST; 3 μg/ml", "result": "≥ 20", "unit": "%"}, {"measurement": "NQO1 enzymatic activity induced over DMSO control", "setting": "NQO1; 3 μg/ml", "result": "≥ 20", "unit": "%"}, {"measurement": "Nrf-2 nuclear translocation (in words)", "setting": "Nrf-2", "result": "dramatic increase"}, {"measurement": "MT 1.2 (ave) Ratio to DMSO", "setting": "[2]", "result": 0.87}, {"measurement": "MT gene induction (in words)", "setting": "[2]", "result": "but not MT"}, {"measurement": "HMOX1 gene induction (in words)", "setting": "HMOX1", "result": "increased"}, {"measurement": "Phase II (ave) Ratio to DMSO", "setting": "GSTA1 and NQO1", "result": 1.64}, {"measurement": "phase II gene induction (in words)", "setting": "GSTA1 and NQO1", "result": "increased"}, {"measurement": "expression of heme oxygenase promoter activity (in words)", "setting": "[1]", "result": "induced"}]}
{"smiles": "[Cl-].[Cl-].[Zn+2]", "note": "[ZnCl2]", "values": [{"measurement": "Phase II (ave) Ratio to DMSO", "setting": "GSTA1 and NQO1; HepG2 cells, 8 hours, 10 μg/ml, average of GSTA1 and NQO1", "result": 0.94}, {"measurement": "expression of heme oxygenase promoter activity (in words)", "setting": "[1]", "result": "induced"}]}
{"smiles": "[Cl][Cd][Cl]", "note": "[CdCl2]", "values": [{"measurement": "MT gene induction (in words)", "setting": "[2]; HepG2 cells, controls", "result": "induce"}, {"measurement": "HMOX1 gene induction (in words)", "setting": "HMOX1; HepG2 cells, controls", "result": "induce"}, {"measurement": "Phase II (ave) Ratio to DMSO", "setting": "GSTA1 and NQO1; HepG2 cells, 8 hours, 40 uM, average of GSTA1 and NQO1", "result": 0.94}, {"measurement": "phase II gene induction (in words)", "setting": "GSTA1 and NQO1; HepG2 cells, controls", "result": "unable to increase"}]}
{"smiles": "OCc1c[nH]c2ccccc12", "note": "[I3C]", "values": [{"measurement": "NQO1 enzymatic activity induced over DMSO control", "setting": "NQO1; 25 μg/ml", "result": "≥ 20", "unit": "%"}]}
{"smiles": "c1ccc2c(Cc3c[nH]c4ccccc34)c[nH]c2c1", "note": "[DIM]", "values": [{"measurement": "NQO1 enzymatic activity induced over DMSO control", "setting": "NQO1; 25 μg/ml", "result": "≥ 20", "unit": "%"}]}
{"smiles": "O=c1c(O)c(-c2ccc(O)c(O)c2)oc2cc(O)cc(O)c12", "note": "[Quercitin]", "values": [{"measurement": "NQO1 enzymatic activity induced over DMSO control", "setting": "NQO1; 20 μg/ml", "result": "≥ 20", "unit": "%"}]}
{"smiles": "O=C(/C=C/c1ccc(O)c(O)c1)O[C@@H]1C[C@](O)(C(=O)O)C[C@@H](O)[C@H]1O", "note": "[chlorogenic acid]", "values": [{"measurement": "NQO1 enzymatic activity induced over DMSO control", "setting": "NQO1; 25 μg/ml", "result": "≥ 20", "unit": "%"}]}
{"smiles": "C=C1CC[C@@H]2[C@](C)(CO)[C@H](O)CC[C@@]2(C)[C@@H]1C/C=C1/C(=O)OC[C@H]1O", "note": "[Andrographis, 3-(2-(Decahydro-6-hydroxy-5-(hydroxymethyl)-5,8a-dimethyl-2-methylenenaphthyl)ethylidene)dihydro-4-hydroxyfuran-2(3H)-one]", "values": [{"measurement": "GST activity induced over DMSO control", "setting": "GST; 25 μg/ml", "result": "≥ 20", "unit": "%"}, {"measurement": "NQO1 enzymatic activity induced over DMSO control", "setting": "NQO1; 25 μg/ml", "result": "≥ 20", "unit": "%"}, {"measurement": "HMOX1 gene expression increased over DMSO control", "setting": "HMOX1; HepG2 cells", "result": "≥ 20", "unit": "%"}, {"measurement": "phase II gene expression increased over DMSO control", "setting": "GSTA1 and NQO1; HepG2 cells", "result": "≥ 20", "unit": "%"}]}
